# Test results: patent US20230064292A1, “METHODS OF TREATING PSMA-POSITIVE CANCER USING RADIONUCLIDE THERAPY” (priority 2020, published 2023)
# “And” between values parts separate entries of the source, which are not always exact repeats. Equal entries are not always repeated.
# What was measured:
# [1] = system: prostate specific antigen (PSA); assay: PSA levels in patients after CTT1403 administration; format: in vivo, human
# Protocol: (§1) In order to investigate the pharmacokinetics of CTT1403, doses were administered by IV to fifteen subjects. The subjects each had histologically confirmed prostate adenocarcinoma that was metastatic and castration resistant (mCRPA). Subjects with de novo small cell carcinoma of the prostate were excluded. The subjects further had at least three metastatic foci avid for PSMA-specific PET agent CTT1057 or 68Ga-PSMA-11 uptake. PSMA avidity was defined as SUVmax>mediastinal blood pool. The subjects had received docetaxel, were ineligible for docetaxel, or had refused docetaxel. They all further had progression by the PCWG3 criteria during or after treatment with abiraterone, enzalutamide, and/or apalutamide, and had serum testosterone<50 ng/dL. Subjects without a history of bilateral orchiectomy were required to remain on a luteinizing hormone-releasing hormone (LHRH) analog during the course of the protocol therapy.
# Reduction in prostate specific antigen (PSA) at least 12 weeks after therapeutic administration is generally thought to be predictive of therapeutic efficacy. PSA levels at screening, at CTT1403 administration and at specified time points after CTT1403 administration are shown for selected patients enrolled in the trial, including patients still actively under observation (Patients 13, 14, 15). Reduction in PSA compared to Cycle 1, Day 1 has been observed in 4 patients to date: Patient 002 (75% maximum reduction), Patient 4 (40% maximum reduction), Patient 13 (14% reduction to date) and Patient 15 (9% reduction to date).
# [2] = Physical examination and monitoring for adverse events in the clinical trial; format: in vivo, human; details: to date
# [3] = system: PSMA-expressing PC3-PIP cells; assay: Cellular uptake and internalization in PSMA-expressing PC3-PIP cells; format: cell-based
# Excerpt: The PSMA binding scaffold of PSMA binds irreversibly to the extracellular enzymatic domain of PSMA leading to rapid internalization by PSMA-expressing cancer cells. Tumor cell uptake of CTT1403 is ˜84% after just 2½ hours (FIG. 1), compared to less than 40% tumor cell uptake of ^177Lu-PSMA-617 (structure shown below), in PSMA-expressing PC3-PIP cells.
# Given that 99% of cell bound CTT1403 is internalized, compared to just 15% of ^177Lu-PSMA-617, targeting by CTT1403 is expected to confer a significant therapeutic advantage. This greater uptake will allow treatment of smaller tumors for a longer time. Both irreversible binding and cellular internalization increases exposure of target tissue to the therapeutic agent. Greater accumulation in the target tissue will permit a lower efficacious dose and/or dosing frequency, thus reducing a patient's total clinical exposure to the radionuclide and improving the therapeutic index.
# [4] = Pharmacokinetics of CTT1403 in mCRPC subjects (radioactivity of blood samples); format: in vivo, human
# Protocol: as §1
# Pharmacokinetics assessment follows the movement of drugs throughout the body, including measurement of the drug's half-life in circulation. The longer a drug remains available in circulation before being cleared from the body, the greater the opportunity for it to meet its target and achieve the desired therapeutic effect. To measure pharmacokinetics, remaining CTT1403 was estimated by measuring the radioactivity of blood sample withdrawn at particular time points. Each patient received a dose ranging from 0.75 GBq to 7.5 GBq.
# This is already more than a 5.3-fold greater distribution phase and 3.5-fold greater elimination phase than the PSMA-617 agent (without the albumin binder) and will further increase as the dose increases. […] CTT anticipates that these early observations will translate to compelling efficacy as the trial progresses. Table 1 reports the blood distribution and elimination half-lives for 13 of 15 patients enrolled in the study. […] Longer clearance half-lives will advantageously yield enhanced drug delivery as CTT1403 has more time to find and bind to expressed PSMA. This effect also allows more time for the therapeutic agent to reach smaller tumors or poorly-vascularized tumors. Longer systemic circulation of CTT1403 afforded by the albumin motif believed to lead to lower dosing of the kidneys, a dose-limiting factor, allowing higher dosages to be safely administered.
# [5] = 1.5 GBq IV (1st patient at this dose)
# [6] = 2.0 GBq IV (1st patient at this dose)
# [7] = 3.0 GBq IV (1st patient at this dose)
# [8] = 3.0 GBq IV (2nd patient at this dose)
# [9] = 3.0 GBq IV (3rd patient at this dose)
# [10] = 4.5 GBq IV (1st patient at this dose)
# [11] = 4.5 GBq IV (2nd patient at this dose)
# [12] = 4.5 GBq IV (3rd patient at this dose)
# [13] = 6.0 GBq IV (1st patient at this dose)
# [14] = 6.0 GBq IV (2nd patient at this dose)
# [15] = 6.0 GBq IV (3rd patient at this dose)
# [16] = 7.5 GBq IV (1st patient at this dose)
# [17] = 7.5 GBq IV (2nd patient at this dose)
# [18] = half-life of CTT1403 vs reported 177Lu-PSMA-617
# [19] = mean of 13 patients, 1.5-7.5 GBq IV, preliminary
smiles,measurement,setting,value
O=C(O)CC[C@H](NP(=O)(O)OCCC[C@H](NC(=O)CC[C@H](NC(=O)CCCCCNC(=O)CCC(NC(=O)CCOCCOCCOCCOCCNC(=O)CCC(=O)N1Cc2ccccc2-c2c(nnn2CCCNC(=O)CN2CCN3CCN4CCN(CC2)CC(=O)[O][177Lu]([O]C(=O)C3)[O]C(=O)C4)-c2ccccc21)C(=O)NC(CCCCNC(=O)CCCc1ccc(I)cc1)C(=O)O)C(=O)O)C(=O)O)C(=O)O (stereo partly drawn) [CTT1403],"Reduction in PSA compared to Cycle 1, Day 1","[1]; Patient 002, maximum reduction",75%
same,"Reduction in PSA compared to Cycle 1, Day 1","[1]; Patient 4, maximum reduction",40%
same,"Reduction in PSA compared to Cycle 1, Day 1","[1]; Patient 13, reduction to date",14%
same,"Reduction in PSA compared to Cycle 1, Day 1","[1]; Patient 15, reduction to date",9%
same,PSA Result,"[1]; patient 2 (1.50 GBq), 4 Weeks Post Treatment",405.6 µg/L
same,PSA Result,"[1]; patient 2 (1.50 GBq), 8 Weeks Post Treatment",167.013 µg/L
same,PSA Result,"[1]; patient 2 (1.50 GBq), 12 Weeks Post Treatment",45.716 µg/L
same,PSA Result,"[1]; patient 2 (1.50 GBq), Cycle 1-Day 1",162.353 µg/L
same,PSA Result,"[1]; patient 2 (1.50 GBq), Cycle 1-Day 22",185.132 µg/L
same,PSA Result,"[1]; patient 2 (1.50 GBq), Cycle 2-Day 1",194.320 µg/L
same,PSA Result,"[1]; patient 2 (1.50 GBq), End of Treatment",215.919 µg/L
same,PSA Result,"[1]; patient 4 (3.00 GBq), 8 Weeks Post Treatment",41.80 µg/L
same,PSA Result,"[1]; patient 4 (3.00 GBq), Cycle 1-Day 1",65.684 µg/L
same,PSA Result,"[1]; patient 4 (3.00 GBq), Cycle 1-Day 22",77.876 µg/L
same,PSA Result,"[1]; patient 4 (3.00 GBq), End of Treatment",115.658 µg/L
same,PSA Result,"[1]; patient 4 (3.00 GBq), Screening (before dosing)",70.228 µg/L
same,PSA Result,"[1]; patient 13 (5.99 GBq), Cycle 1-Day 1",146.133 µg/L
same,PSA Result,"[1]; patient 13 (5.99 GBq), Cycle 1-Day 22",148.217 µg/L
same,PSA Result,"[1]; patient 13 (5.99 GBq), Cycle 2-Day 1",135.620 µg/L
same,PSA Result,"[1]; patient 13 (5.99 GBq), Cycle 2-Day 22",126.392 µg/L
same,PSA Result,"[1]; patient 13 (5.99 GBq), Screening (before dosing)",166.793 µg/L
same,PSA Result,"[1]; patient 14 (7.98 GBq), Cycle 1-Day 1",22.642 µg/L
same,PSA Result,"[1]; patient 14 (7.98 GBq), Cycle 1-Day 22",142 µg/L
same,PSA Result,"[1]; patient 14 (7.98 GBq), Screening (before dosing)",16.310 µg/L
same,PSA Result,"[1]; patient 15 (7.77 GBq), Cycle 1-Day 1",595.739 µg/L
same,PSA Result,"[1]; patient 15 (7.77 GBq), Cycle 1-Day 22",543.5 µg/L
same,PSA Result,"[1]; patient 15 (7.77 GBq), Screening (before dosing)",410.363 µg/L
same,serious adverse events after receipt of CTT1403,[2],no serious adverse events
same,cell bound agent that is internalized,[3]; PSMA-expressing PC3-PIP cells,99%
same,Tumor cell uptake,"[3]; after 2½ hours, PSMA-expressing PC3-PIP cells (FIG. 1)",~84%
same,Distribution Half-life,[4]; [5],0.75 h
same,Elimination Half-life 2,[4]; [5],28.88 h
same,Distribution Half-life,[4]; [6],1.04 h
same,Elimination Half-life 2,[4]; [6],23.90 h
same,Distribution Half-life,[4]; [7],0.51 h
same,Elimination Half-life 2,[4]; [7],27.73 h
same,Distribution Half-life,[4]; [8],0.89 h
same,Elimination Half-life 2,[4]; [8],31.51 h
same,Distribution Half-life,[4]; [9],0.70 h
same,Elimination Half-life 2,[4]; [9],36.48 h
same,Distribution Half-life,[4]; [10],0.85 h
same,Elimination Half-life 2,[4]; [10],33.01 h
same,Distribution Half-life,[4]; [11],0.85 h
same,Elimination Half-life 2,[4]; [11],34.66 h
same,Distribution Half-life,[4]; [12],0.85 h
same,Elimination Half-life 2,[4]; [12],43.32 h
same,Distribution Half-life,[4]; [13],0.78 h
same,Elimination Half-life 2,[4]; [13],46.21 h
same,Distribution Half-life,[4]; [14],0.57 h
same,Elimination Half-life 2,[4]; [14],30.14 h
same,Distribution Half-life,[4]; [15],1.06 h
same,Elimination Half-life 2,[4]; [15],33.01 h
same,Distribution Half-life,[4]; [16],1.20 h
same,Elimination Half-life 2,[4]; [16],57.76 h
same,Distribution Half-life,[4]; [17],1.00 h
same,Elimination Half-life 2,[4]; [17],57.76 h
same,CTT1403 detection in blood,"[4]; after 2 weeks, subjects who received the 7.5 GBq dose",still detected
same,fold greater distribution phase than the PSMA-617 agent,[4]; [18],> 5.3 fold
same,fold greater elimination phase than the PSMA-617 agent,[4]; [18],> 3.5 fold
same,Distribution half-life (mean),[4]; [19],0.85 ± 0.2 h
same,Elimination half-life (mean),[4]; [19],37.3 ± 10.9 h and 37.26 h
same,"Distribution phase half-life, range","[4]; range over patients, 1.5-7.5 GBq IV",0.51 to 1.2 h
same,circulation time compared with 177Lu-PSMA-617,[4]; vs agent lacking the albumin binding moiety,at least two to ten-fold greater
